For orientation: Ki means a measure of affinity in units of concentration, obtained from inhibition or displacement.

The record followed here is BindingDB's records for doi:10.1038/304065a0 (Hoechst Pharmaceutical Research Laboratories, 1983).

The target in this assay is Histamine H2 receptor (Cavia porcellus, UniProt P47747).
Histamine H2 receptor, sequence (P47747 whole entry): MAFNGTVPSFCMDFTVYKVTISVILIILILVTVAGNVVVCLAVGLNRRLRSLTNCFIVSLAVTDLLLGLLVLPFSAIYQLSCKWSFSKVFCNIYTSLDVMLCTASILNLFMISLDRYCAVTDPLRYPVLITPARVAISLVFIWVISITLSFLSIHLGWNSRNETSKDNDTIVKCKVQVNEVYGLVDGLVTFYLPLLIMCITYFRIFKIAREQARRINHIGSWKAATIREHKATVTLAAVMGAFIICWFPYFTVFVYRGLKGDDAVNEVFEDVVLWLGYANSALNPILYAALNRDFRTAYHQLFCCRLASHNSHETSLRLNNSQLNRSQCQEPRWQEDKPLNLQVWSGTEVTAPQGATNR

For the molecule `NC(N)=Nc1nc(CSCCC(N)=NS(N)(=O)=O)cs1`, the affinity corresponds to a Ki of 12 nM. This lies in the double-digit nanomolar range. To `CN/C([CH-][N+](=O)[O-])=[NH+]\CCSCc1ccc(CN(C)C)o1` belongs 390 nM. To `CNC(=S)NCCCc1cnc[nH]1` belongs more than 10000 nM; to `CNC(=S)NCCCCc1cnc[nH]1` [1-[4-(1H-imidazol-5-yl)butyl]-3-methylthiourea], 3000 nM. As for `Cc1nc[nH]c1CCN` [2-(5-methyl-1H-imidazol-4-yl)ethan-1-amine], the Ki is more than 10000 nM. `Cc1[nH]cnc1CSCCNC(=N)NCCCc1c[nH]cn1` [2-[3-(1H-imidazol-5-yl)propyl]-1-(2-{[(5-methyl-1H-imidazol-4-yl)methyl]sulfanyl}ethyl)guanidine] had a Ki of 63 nM. `C/N=C(\S)NCCSCc1[nH]cnc1C` [CAS_34839-70-8] came in with a Ki of 510 nM.

In turn, `CN(C)CCCSC(=N)N` [[3-(carbamimidoylsulfanyl)propyl]dimethylamine] showed a Ki of more than 10000 nM.
